Drawing on BindingDB's records for doi:10.1016/j.chembiol.2010.05.008 (Kyowa Hakko Kogyo, 2010), this text covers IC50 for three compounds.

pIC50: −log10 of the molar value.

The target in this assay is Nicotinamide phosphoribosyltransferase (Homo sapiens, UniProt P43490). Kind of assay: In Vitro Inhibition Assay.
Chain of Nicotinamide phosphoribosyltransferase (P43490 whole entry): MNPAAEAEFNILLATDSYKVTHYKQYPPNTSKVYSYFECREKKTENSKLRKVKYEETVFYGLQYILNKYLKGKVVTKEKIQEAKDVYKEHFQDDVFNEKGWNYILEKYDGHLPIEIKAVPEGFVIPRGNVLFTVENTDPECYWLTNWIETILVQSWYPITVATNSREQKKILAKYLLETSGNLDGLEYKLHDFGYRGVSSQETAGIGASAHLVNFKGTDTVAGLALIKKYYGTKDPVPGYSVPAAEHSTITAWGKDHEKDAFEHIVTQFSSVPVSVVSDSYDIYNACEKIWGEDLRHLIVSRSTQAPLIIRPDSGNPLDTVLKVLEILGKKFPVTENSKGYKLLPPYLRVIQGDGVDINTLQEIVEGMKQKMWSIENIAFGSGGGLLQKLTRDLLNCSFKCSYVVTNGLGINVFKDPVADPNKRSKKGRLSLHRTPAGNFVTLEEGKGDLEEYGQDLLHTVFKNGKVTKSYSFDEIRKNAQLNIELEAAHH
`C#CCN(Cc1cc2c(=O)n(C)c(CN3CCN(C)CC3)nc2cc1Cl)c1ccc(C(=O)NCc2cccnc2)cc1` gave a negative logarithm of the IC50 (pIC50) of 9.64.
Consider `C#CCN(Cc1cc2c(=O)n(C)c(CN3CCN(CCN)CC3)nc2cc1Cl)c1ccc(C(=O)NCc2ccccn2)cc1` [MPI-0482594], for which the pIC50 was 7.54. Against the preceding compound, the pIC50 is 2.10 log units lower.
Compound `C#CCN(Cc1cc2c(=O)n(C)c(CN3CCN(C)CC3)nc2cc1Cl)c1ccc(C(=O)NCc2ccccn2)cc1` [MPI-0482593] showed a pIC50 of 7.13.
